Reference: patent US5583224A, “Isolation and elucidation of cephalostatin 7, 8 and 9” (Arizona Board of Regents acting on behalf of Arizona State …, priority 1993, dated 1996)

How the values were obtained:
[1] = tested on: panel of 60 human tumor cell lines; assay: NCI standard human tumor cell line panel (60 cell lines); type: cell-based; settings: for activity against human cancer cell lines: panel of human cancer cell lines employed by NCI
From the text: Current research in the control of cancer in the United States is coordinated by the National Cancer Institute (NCI). To determine whether a substance has anti-cancer properties, the NCI has established a systematic protocol. […] The protocol, and the established statistical means for analyzing the results obtained by the standardized testing are fully described in the literature. See: Boyd, Dr. Michael R., Principles & Practice of Oncology, PPO Updates, Volume 3, Number 10, Oct. 1989, for an in depth description of the testing protocol; and Paull, K. D., "Display and Analysis of Patterns of Differential Activity of Drugs Against Human Tumor Cell Lines; Development of Mean Graph and COMPARE Algorithm", Journal of the National Cancer Institute Reports, Vol. 81, No. 14, Page 1088, Jul. 14, 1989 for a description of the methods of statistical analysis. Both of these references are incorporated herein by this reference thereto.

[2] = tested on: P388 lymphocytic leukemia cell line; assay: P388 lymphocytic leukemia (PS) cell line growth inhibition in vitro; type: cell-based, murine
[3] = tested on: P388 lymphocytic leukemia cell line; settings: first chemical study, Pettit et al., J. Am. Chem. Soc 1988; cited from earlier work

CC1[C@@H]2CC=C3C4CCC5Cc6nc7c(nc6C[C@@]5(C)C4CC(=O)[C@]32CO[C@@]1(O)C(O)CC(C)(C)O)CC1CCC2C3=C[C@H]4O[C@@]5(O[C@@](C)(CO)C[C@@H]5O)C(C)[C@@]4(O)[C@]3(C)[C@@H](O)CC2[C@]1(C)C7 (some centres unmarked) [Cephalostatin 9]
activity against other NCI cell lines ([1]; other NCI cell lines): confirmed active level | activity against human cancer cell lines [1]: powerful inhibitors of various human tumor cell lines | activity against human cancer cell lines ([1]; listed as cephalostatin 9): very strong and selective activity | activity against murine P388 lymphocytic leukemia (PS system) [2]: confirmed active level

C[C@@H]1[C@]2(O[C@H]3C=C4[C@@H]5CC[C@H]6Cc7nc8c(nc7C[C@]6(C)[C@H]5C[C@@H](O)[C@]4(C)[C@]31O)C[C@@H]1CC[C@H]3C4=CC[C@@H]5[C@H](C)[C@@]6(OC[C@]45C(=O)C[C@@H]3[C@@]1(C)C8)OC(C)(C)C[C@H]6O)O[C@](C)(CO)C[C@H]2O [cephalostatin 1]
P388 ED50 [3]: 10^-7 to 10^-9 μg/mL
